# According to patent US11053204B2, “Pyrimidinyloxy benzene derivatives as herbicides” (FMC Corporation, priority 2015, dated 2021):
# Key:
# Type in all cases: in vivo
# [1] = tested on: corn (Zea mays); test: Test A postemergence, visual injury rating; conditions: 0 is no effect, 100 is complete control
# How it was run: (§1)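 Scoring: eye-based comparison with untreated controls, 0 for no effect through 100 for complete control, at about day 10. Treatments: directed soil spray preemergence; foliar spray postemergence on 2–10 cm plants at the one- to two-leaf stage. Medium: loam soil with sand.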
# [2] = tested on: galium (catchweed bedstraw, Galium aparine); test: Test A postemergence, visual injury rating; conditions: 0 is no effect, 100 is complete control
# How it was run: as §1
# [3] = tested on: blackgrass (Alopecurus myosuroides); test: Test A postemergence, visual injury rating; conditions: 0 is no effect, 100 is complete control
# How it was run: as §1
# [4] = tested on: Italian ryegrass (Lolium multiflorum); test: Test A postemergence, visual injury rating; conditions: 0 is no effect, 100 is complete control; for Ryegrass, Italian plant response rating: 0 to 100 scale, approximately 10 days
# How it was run: as §1
# [5] = tested on: barnyardgrass (Echinochloa crus-galli); test: Test A postemergence, visual injury rating; conditions: 0 is no effect, 100 is complete control
# How it was run: as §1
# [6] = tested on: giant foxtail (Setaria faberii); test: Test A postemergence, visual injury rating; conditions: 0 is no effect, 100 is complete control
# How it was run: as §1
# [7] = tested on: pigweed (Amaranthus retroflexus); test: Test A postemergence, visual injury rating; conditions: 0 is no effect, 100 is complete control; for Pigweed plant response rating: 0 to 100 scale, approximately 10 days
# How it was run: as §1
# [8] = tested on: wheat (Triticum aestivum); test: Test A postemergence, visual injury rating; conditions: 0 is no effect, 100 is complete control; for Wheat plant response rating: 0 to 100 scale, approximately 10 days
# How it was run: as §1
# [9] = tested on: ragweed (common ragweed, Ambrosia elatior); test: Test A postemergence, visual injury rating; conditions: 0 is no effect, 100 is complete control; for Ragweed plant response rating: 0 to 100 scale, approximately 10 days
# How it was run: as §1
# [10] = tested on: kochia (Kochia scoparia); test: Test A postemergence, visual injury rating; conditions: 0 is no effect, 100 is complete control; for Kochia plant response rating: 0 to 100 scale, approximately 10 days
# How it was run: as §1
# [11] = tested on: galium (catchweed bedstraw, Galium aparine); test: Test C postemergence, plant response rating; conditions: for Galium plant response rating: scale 0 to 100 (0 no effect, 100 complete control)
# How it was run: (§2)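 Both timings shared one formulation, a non-phytotoxic solvent mixture with surfactant, and a greenhouse period of 13 to 15 d. Preemergence used seeded loam/sand or silt loam soil, postemergence used 2 to 18 cm plants; visual ratings ran from 0 (no effect) to 100 (complete control).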
# [12] = tested on: velvetleaf (Abutilon theophrasti); test: Test C postemergence, plant response rating; conditions: for Velvetleaf plant response rating: scale 0 to 100 (0 no effect, 100 complete control)
# How it was run: as §2
# [13] = tested on: ragweed (common ragweed, Ambrosia elatior); test: Test C postemergence, plant response rating; conditions: for Ragweed plant response rating: scale 0 to 100 (0 no effect, 100 complete control)
# How it was run: as §2
# [14] = tested on: waterhemp (common waterhemp, Amaranthus rudis); test: Test C postemergence, plant response rating; conditions: for Waterhemp plant response rating: scale 0 to 100 (0 no effect, 100 complete control)
# How it was run: as §2
# [15] = tested on: barnyardgrass (Echinochloa crus-galli); test: Test B flooded paddy test, plant response rating; conditions: 250 g ai/ha; Flood; scale of 0 to 100 where 0 is no effect and 100 is complete control; 13 to 15 days
# How it was run: (§3)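 In-water treatment: compound dosed into 3 cm flood over soil, water level unchanged throughout. Controls run alongside; visual assessment at day 13–15.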
# [16] = tested on: ducksalad (Heteranthera limosa); test: Test B flooded paddy test, plant response rating; conditions: 250 g ai/ha; Flood; scale of 0 to 100 where 0 is no effect and 100 is complete control; 13 to 15 days
# How it was run: as §3
# [17] = tested on: sedge, umbrella (small-flower umbrella sedge, Cyperus difformis); test: Test B flooded paddy test, plant response rating; conditions: 250 g ai/ha; Flood; scale of 0 to 100 where 0 is no effect and 100 is complete control; 13 to 15 days
# How it was run: as §3
# [18] = tested on: rice (Oryza sativa); test: Test B flooded paddy test, plant response rating; conditions: 250 g ai/ha; Flood; scale of 0 to 100 where 0 is no effect and 100 is complete control; 13 to 15 days
# How it was run: as §3
# [19] = tested on: barnyardgrass (Echinochloa crus-galli); test: Test C preemergence, plant response rating; conditions: Preemergence
# [20] = 31 g ai/ha, 0 to 100 scale, approximately 10 days
smiles,measurement,setting,value
O=C(CCCC(F)(F)F)c1c(Br)cccc1Oc1ncc(Cl)cn1 [Compound 77],Corn plant response rating,[1]; [20],10
same,Corn plant response rating (0 to 100 scale),[1]; 125 g ai/ha,30
same,Galium plant response rating,[2]; [20],90
same,Galium plant response rating (0 to 100 scale),[2]; 125 g ai/ha,100
same,Blackgrass plant response rating,[3]; [20],20
same,Blackgrass plant response rating (0 to 100 scale),[3]; 125 g ai/ha,50
same,"Ryegrass, Italian plant response rating",[4]; 31 g ai/ha,20
same,"Ryegrass, Italian plant response rating",[4]; 125 g ai/ha,60
same,Barnyardgrass plant response rating,[5]; [20],30
same,Barnyardgrass plant response rating (0 to 100 scale),[5]; 125 g ai/ha,90
same,"Foxtail, Giant plant response rating",[6]; [20],30
same,"Foxtail, Giant plant response rating (0 to 100 scale)",[6]; 125 g ai/ha,90
same,Pigweed plant response rating,[7]; 31 g ai/ha,100
same,Pigweed plant response rating,[7]; 125 g ai/ha,100
same,Wheat plant response rating,[8]; 31 g ai/ha,0
same,Wheat plant response rating,[8]; 125 g ai/ha,10
same,Ragweed plant response rating,[9]; 31 g ai/ha,0
same,Ragweed plant response rating,[9]; 125 g ai/ha,0
same,Kochia plant response rating,[10]; 31 g ai/ha,100
same,Kochia plant response rating,[10]; 125 g ai/ha,100
same,"Plant response rating, Galium","[11]; 16 g ai/ha, scale of 0 to 100",75
same,"Plant response rating, Galium","[11]; 31 g ai/ha, scale 0 to 100",98
same,Galium plant response rating,[11]; 62 g ai/ha,95
same,Galium plant response rating,[11]; 125 g ai/ha,98
same,"Plant response rating, Velvetleaf","[12]; 16 g ai/ha, scale of 0 to 100",35
same,"Plant response rating, Velvetleaf","[12]; 31 g ai/ha, scale 0 to 100",50
same,Velvetleaf plant response rating,[12]; 62 g ai/ha,55
same,Velvetleaf plant response rating,[12]; 125 g ai/ha,65
same,"Plant response rating, Ragweed","[13]; 16 g ai/ha, scale of 0 to 100",40
same,"Plant response rating, Ragweed","[13]; 31 g ai/ha, scale 0 to 100",40
same,Ragweed plant response rating,[13]; 62 g ai/ha,35
same,Ragweed plant response rating,[13]; 125 g ai/ha,70
same,"Plant response rating, Waterhemp","[14]; 16 g ai/ha, scale of 0 to 100",95
same,"Plant response rating, Waterhemp","[14]; 31 g ai/ha, scale 0 to 100",98
same,Waterhemp plant response rating,[14]; 62 g ai/ha,100
same,Waterhemp plant response rating,[14]; 125 g ai/ha,100
same,"Plant response rating, Barnyardgrass",[15],15
same,"Plant response rating, Ducksalad",[16],85
same,"Plant response rating, Sedge, Umbrella",[17],100
same,"Plant response rating, Rice",[18],0
same,"Plant response rating, Barnyardgrass","[19]; 62 g ai/ha, scale of 0 to 100",98
same,"Plant response rating, Barnyardgrass","[19]; 125 g ai/ha, scale of 0 to 100",100
same,"Plant response rating, Barnyardgrass","[19]; 16 g ai/ha, scale 0 to 100",20
same,"Plant response rating, Barnyardgrass","[19]; 31 g ai/ha, scale 0 to 100",60
CCCCC(=O)c1c(Br)cccc1Oc1ncc(Cl)cn1 [Compound 79],Corn plant response rating (0 to 100 scale),[1]; 125 g ai/ha,80
same,Corn plant response rating (0 to 100 scale),[1]; 500 g ai/ha,90
same,Galium plant response rating (0 to 100 scale),[2]; 125 g ai/ha,90
same,Galium plant response rating (0 to 100 scale),[2]; 500 g ai/ha,100
same,Blackgrass plant response rating (0 to 100 scale),[3]; 125 g ai/ha,50
same,Blackgrass plant response rating (0 to 100 scale),[3]; 500 g ai/ha,90
same,"Ryegrass, Italian plant response rating",[4]; 125 g ai/ha,90
same,"Ryegrass, Italian plant response rating (0 to 100 scale)",[4]; 500 g ai/ha,90
same,Barnyardgrass plant response rating (0 to 100 scale),[5]; 125 g ai/ha,90
same,Barnyardgrass plant response rating (0 to 100 scale),[5]; 500 g ai/ha,100
same,"Foxtail, Giant plant response rating (0 to 100 scale)",[6]; 125 g ai/ha,80
same,"Foxtail, Giant plant response rating (0 to 100 scale)",[6]; 500 g ai/ha,80
same,Pigweed plant response rating,[7]; 125 g ai/ha,100
same,Pigweed plant response rating (0 to 100 scale),[7]; 500 g ai/ha,100
same,Wheat plant response rating,[8]; 125 g ai/ha,20
same,Wheat plant response rating (0 to 100 scale),[8]; 500 g ai/ha,30
same,Ragweed plant response rating,[9]; 125 g ai/ha,30
same,Ragweed plant response rating (0 to 100 scale),[9]; 500 g ai/ha,40
same,Kochia plant response rating,[10]; 125 g ai/ha,100
same,Kochia plant response rating (0 to 100 scale),[10]; 500 g ai/ha,100
same,"Plant response rating, Galium","[11]; 16 g ai/ha, scale of 0 to 100",75
same,"Plant response rating, Galium","[11]; 31 g ai/ha, scale 0 to 100",80
same,Galium plant response rating,[11]; 62 g ai/ha,85
same,Galium plant response rating,[11]; 125 g ai/ha,95
same,"Plant response rating, Velvetleaf","[12]; 16 g ai/ha, scale of 0 to 100",30
same,"Plant response rating, Velvetleaf","[12]; 31 g ai/ha, scale 0 to 100",75
same,Velvetleaf plant response rating,[12]; 125 g ai/ha,90
same,"Plant response rating, Ragweed","[13]; 16 g ai/ha, scale of 0 to 100",30
same,"Plant response rating, Ragweed","[13]; 31 g ai/ha, scale 0 to 100",20
same,Ragweed plant response rating,[13]; 62 g ai/ha,75
same,Ragweed plant response rating,[13]; 125 g ai/ha,65
same,"Plant response rating, Waterhemp","[14]; 16 g ai/ha, scale of 0 to 100",95
same,"Plant response rating, Waterhemp","[14]; 31 g ai/ha, scale 0 to 100",95
same,Waterhemp plant response rating,[14]; 125 g ai/ha,98
same,"Plant response rating, Barnyardgrass",[15],60
same,"Plant response rating, Ducksalad",[16],90
same,"Plant response rating, Sedge, Umbrella",[17],100
same,"Plant response rating, Rice",[18],45
same,"Plant response rating, Barnyardgrass","[19]; 62 g ai/ha, scale of 0 to 100",75
same,"Plant response rating, Barnyardgrass","[19]; 125 g ai/ha, scale of 0 to 100",95
same,"Plant response rating, Barnyardgrass","[19]; 16 g ai/ha, scale 0 to 100",5
same,"Plant response rating, Barnyardgrass","[19]; 31 g ai/ha, scale 0 to 100",60
